# Measured values taken from patent US7012080B2, “Imidazopyridine compounds as 5-HT4 receptor agonists” (Pfizer Inc., priority 2002, dated 2006).
# Legend:
# HERG potassium channel = target: T1, HERG potassium channel (Homo sapiens, UniProt Q12809); assay: Human dofetilide binding ([3H]-dofetilide, HERG transfected HEK293S cell membranes); details: for TI (Defetilide/5HT4): TI = Dofetilide Binding Ki [μM] / 5HT4 Binding Ki [nM] × 1000; for Ki: [3H]-dofetilide 5 nM, human HERG transfected HEK293S membranes
# T1 construct: expressed in transfected cells; host or cells: HEK293S
# T1 sequence (Q12809 whole entry): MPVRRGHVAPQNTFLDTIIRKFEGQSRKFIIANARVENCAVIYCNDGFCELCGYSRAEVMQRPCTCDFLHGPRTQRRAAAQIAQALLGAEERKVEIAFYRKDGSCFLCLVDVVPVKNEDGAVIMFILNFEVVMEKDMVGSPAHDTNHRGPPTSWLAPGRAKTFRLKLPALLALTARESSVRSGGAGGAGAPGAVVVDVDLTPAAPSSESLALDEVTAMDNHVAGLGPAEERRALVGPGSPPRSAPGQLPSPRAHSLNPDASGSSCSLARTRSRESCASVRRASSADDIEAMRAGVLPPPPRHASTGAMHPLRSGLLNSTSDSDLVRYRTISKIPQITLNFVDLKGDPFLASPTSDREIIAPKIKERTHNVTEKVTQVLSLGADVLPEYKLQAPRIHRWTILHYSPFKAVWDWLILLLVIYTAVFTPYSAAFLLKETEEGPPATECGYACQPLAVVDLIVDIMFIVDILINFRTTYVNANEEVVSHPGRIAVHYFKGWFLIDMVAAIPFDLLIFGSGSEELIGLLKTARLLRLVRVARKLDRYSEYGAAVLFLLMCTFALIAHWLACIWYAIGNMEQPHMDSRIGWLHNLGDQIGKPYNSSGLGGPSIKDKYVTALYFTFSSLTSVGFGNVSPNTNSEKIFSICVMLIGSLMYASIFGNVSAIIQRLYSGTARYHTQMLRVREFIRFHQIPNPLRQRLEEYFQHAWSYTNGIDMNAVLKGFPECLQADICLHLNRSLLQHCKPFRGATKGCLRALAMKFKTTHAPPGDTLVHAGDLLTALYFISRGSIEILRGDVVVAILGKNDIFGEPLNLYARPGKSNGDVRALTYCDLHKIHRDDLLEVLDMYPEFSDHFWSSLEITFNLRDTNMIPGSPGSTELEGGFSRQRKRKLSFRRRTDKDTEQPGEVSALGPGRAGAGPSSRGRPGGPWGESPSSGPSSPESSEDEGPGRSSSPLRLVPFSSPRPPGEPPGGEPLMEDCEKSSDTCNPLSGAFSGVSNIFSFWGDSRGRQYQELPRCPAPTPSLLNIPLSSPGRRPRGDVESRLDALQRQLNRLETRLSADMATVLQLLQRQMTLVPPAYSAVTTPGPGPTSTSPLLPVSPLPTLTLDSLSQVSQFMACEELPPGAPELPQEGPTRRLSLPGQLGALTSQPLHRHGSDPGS
# Experimental: Inhibitory activity at HERG channel was estimated from affinity for HERG type potassium channel was investigated by checking [^3H]dofetilide binding, which can predict inhibitory activity at HERG channel (Eur. J. Pharmacol., 430, pp 147–148, 2001). Selected compounds with low [^3H]dofetilide binding activity were evaluated in IHERG assay to check activity at HERG channel. Introducing a branched chain group to nitrogen atom in piperidine ring contributed to potent 5-HT4 receptor agonist activities with reduced inhibitory activity at HERG channel. The compounds of the present invention may show less toxicity, good absorption, distribution and less drug-drug interaction, and have metabolic stability.
# Human HERG transfected HEK293S cells were prepared and grown in-house. The collected cells were suspended in 50 mM Tris-HCl (pH 7.4 at 4° C.) and homogenized using a hand held Polytron PT 1200 disruptor set at full power for 20 sec on ice. The homogenates were centrifuged at 48,000×g at 4° C. for 20 min. The pellets were then resuspended, homogenized, and centrifuged once more in the same manner. The final pellets were resuspended in an appropriate volume of 50 mM Tris-HCl, 10 mM KCl, 1 mM MgCl2 (pH 7.4 at 4° C.), homogenized, aliquoted and stored at −80° C. until use. An aliquot of membrane fractions was used for protein concentration determination using BCA protein assay kit (PIERCE) and ARVOsx plate reader (Wallac).
# Binding assays were conducted in a total volume of 200 μl in 96-well plates. Twenty μl of test compounds were incubated with 20 μl of [^3H]-dofetilide (Amersham, final 5 nM) and 160 μl of membrane homogenate (25 μg protein) for 60 minutes at room temperature. Nonspecific binding was determined by 10 μM dofetilide at the final concentration. Incubation was terminated by rapid vacuum filtration over 0.5% presoaked GF/B Betaplate filter using Skatron cell harvester with 50 mM Tris-HCl, 10 mM KCl, 1 mM MgCl2, pH 7.4 at 4° C. The filters were dried, put into sample bags and filled with Betaplate Scint. Radioactivity bound to filter was counted with Wallac Betaplate counter.
# 5-HT4 receptor = target: T2, 5-HT4 receptor (UniProt Q13639); assay: 5-HT4 receptor binding ([3H]-GR113808 displacement)
# T2 construct: Human 5-HT4(d) transfected HEK293 cells were prepared and grown in-house
# Experimental: The 5-HT4 receptor binding affinities of the compounds of this invention are determined by the following procedures. […]
# Human 5-HT4(d) transfected HEK293 cells were prepared and grown in-house. The collected cells were suspended in 50 mM HEPES (pH 7.4 at 4° C.) supplemented with protease inhibitor cocktail (Boehringer, 1:1000 dilution) and homogenized using a hand held Polytron PT 1200 disruptor set at full power for 30 sec on ice. The homogenates were centrifuged at 40,000×g at 4° C. for 30 min. The pellets were then resuspended in 50 mM HEPES (pH 7.4 at 4° C.) and centrifuged once more in the same manner. The final pellets were resuspended in an appropriate volume of 50 mM HEPES (pH 7.4 at 25° C.), homogenized, aliquoted and stored at −80° C. until use. An aliquot of membrane fractions was used for protein concentration determination using BCA protein assay kit (PIERCE) and ARVOsx plate reader (Wallac).
# For the binding experiments, 25 μl of test compounds were incubated with 25 μl of [^3H]-GR113808 (Amersham, final 0.2 nM) and 150 μl of membrane homogenate and WGA-SPA beads (Amersham) suspension solutions (10 μg protein and 1 mg SPA beads/well) for 60 minutes at room temperature. Nonspecific binding was determined by 1 μM GR113808 (Tocris) at the final concentration. Incubation was terminated by centrifugation at 1000 rpm. Receptor-bound radioactivity was quantified by counting with MicroBeta plate counter (Wallac).
SMILES,TI (Defetilide/5HT4) (HERG potassium channel),Ki (HERG potassium channel) [nM],Ki (5-HT4 receptor) [nM],melting point [°C]
"CCCCN1CCC(CNC(=O)c2cc(Cl)c(N)n3cc(C)nc23)CC1 [Compound A, reference compound]","1,900",2300,1.2,–
"COCCCN1CCC(CNC(=O)c2cc(Cl)c(N)n3cc(C)nc23)CC1 [Compound B, reference compound]","1,300",6000,4.6,–
"Cc1cn2c(N)c(Cl)cc(C(=O)NCC3CCN(CC(C)C)CC3)c2n1 [Example 1, 5-Amino-6-chloro-N-[(1-isobutylpiperidin-4-yl)methyl]-2-methylimidazo[1,2-a]pyridine-8-carboxamide]","7,000",5750,0.82,216 to 219
"Cc1cn2c(N)ccc(C(=O)NCC3CCN(CC(C)C)CC3)c2n1 [Example 2, 5-Amino-N-[(1-isobutylpiperidi-4-yl)methyl]-2-methylimidazo[1,2-a]pyridine-8-carboxamide]","7,800",24100,3.1,–
"CCc1cn2c(N)c(Cl)cc(C(=O)NCC3CCN(CCC(C)(C)C)CC3)c2n1 [Example 3, 5-Amino-6-chloro-N-{[1-(3,3-dimethylbutyl)piperidin-4-yl]methyl}-2-ethylimidazo[1,2-a]pyridine-8-carboxamide]","5,000",3870,0.77,234
"CCc1cn2c(N)c(Cl)cc(C(=O)NCC3CCN(CC(C)(C)OC)CC3)c2n1 [Example 4, 5-Amino-6-chloro-2-ethyl-N-{[1-(2-methoxy-2-methylpropyl)piperidin-4-yl]methyl}imidazo[1,2-a]pyridine-8-carboxamide]",–,22300,1.2,211
"COC(C)(C)CN1CCC(CNC(=O)c2cc(Cl)c(N)n3cc(C)nc23)CC1 [Example 5, 5-Amino-6-chloro-2-methyl-N-{[1-(2-methoxy-2-methylpropyl)piperidin-4-yl]methyl}imidazo[1,2-a]pyridine-8-carboxamide]",–,> 24000,2,211
"COC(C)(C)CCN1CCC(CNC(=O)c2cc(Cl)c(N)n3cc(C)nc23)CC1 [Example 8, 5-Amino-6-chloro-N-{[1-(3-methoxy-3-methylbutyl)piperidin-4-yl]methyl}2-methylimidazo[1,2-a]pyridine-8-carboxamide]",–,–,–,199
"COCC(C)(C)CN1CCC(CNC(=O)c2cc(Cl)c(N)n3cc(C)nc23)CC1 [Example 9, 5-amino-6-chloro-N-{[1-(3-methoxy-2,2-dimethylpropyl)piperidin-4-yl]methyl}2-methylimidazo[1,2-a]pyridine-8-carboxamide]",–,–,–,199
